From ChEMBL document CHEMBL4308864, “Targeting tyrosine kinase: Development of acridone - pyrrole - oxindole hybrids against human breast cancer” (2019)

What was measured:
Format in all cases: functional
NCI-H460 = assay: Growth inhibition of human NCI-H460 cells assessed as cell growth at 10^-5 M incubated for 48 hrs by sulforhodamine B assay relative to control; conditions: NCI-H460, 48 h, read-out: Activity
NCI-H226 = assay: Growth inhibition of human NCI-H226 cells assessed as cell growth at 10^-5 M incubated for 48 hrs by sulforhodamine B assay relative to control; conditions: NCI-H226, 48 h, read-out: Activity
SF-295 = assay: Growth inhibition of human SF295 cells assessed as cell growth at 10^-5 M incubated for 48 hrs by sulforhodamine B assay relative to control; conditions: SF-295, 48 h, read-out: Activity
OVCAR-3 = assay: Growth inhibition of human OVCAR3 cells assessed as cell growth at 10^-5 M incubated for 48 hrs by sulforhodamine B assay relative to control; conditions: OVCAR-3, 48 h, read-out: Activity
NCI-H522 = assay: Growth inhibition of human NCI-H522 cells assessed as cell growth at 10^-5 M incubated for 48 hrs by sulforhodamine B assay relative to control; conditions: NCI-H522, 48 h, read-out: Activity
SK-MEL-2 = assay: Growth inhibition of human SK-MEL-2 cells assessed as cell growth at 10^-5 M incubated for 48 hrs by sulforhodamine B assay relative to control; conditions: SK-MEL-2, 48 h, read-out: Activity
A498 = assay: Growth inhibition of human A498 cells assessed as cell growth at 10^-5 M incubated for 48 hrs by sulforhodamine B assay relative to control; conditions: A498, 48 h, read-out: Activity
T47D = assay: Growth inhibition of human T47D cells at 10^-5 M incubated for 48 hrs by sulforhodamine B assay relative to control; conditions: read-out: GI
RPMI-8226 = assay: Growth inhibition of human RPMI8226 cells assessed as cell growth at 10^-5 M incubated for 48 hrs by sulforhodamine B assay relative to control; conditions: RPMI-8226, 48 h, read-out: Activity
MDA-MB-231 = assay: Growth inhibition of human MDA-MB-231 cells assessed as cell growth at 10^-5 M incubated for 48 hrs by sulforhodamine B assay relative to control; conditions: MDA-MB-231, 48 h, read-out: Activity
OVCAR-4 = assay: Growth inhibition of human OVCAR4 cells assessed as cell growth at 10^-5 M incubated for 48 hrs by sulforhodamine B assay relative to control; conditions: OVCAR-4, 48 h, read-out: Activity
Hs-578T = assay: Growth inhibition of human Hs578T cells assessed as cell growth at 10^-5 M incubated for 48 hrs by sulforhodamine B assay relative to control; conditions: read-out: Activity
SW-620 = assay: Growth inhibition of human SW620 cells assessed as cell growth at 10^-5 M incubated for 48 hrs by sulforhodamine B assay relative to control; conditions: SW-620, 48 h, read-out: Activity
EKVX = assay: Growth inhibition of human EKVX cells assessed as cell growth at 10^-5 M incubated for 48 hrs by sulforhodamine B assay relative to control; conditions: read-out: Activity
LOX IMVI = assay: Growth inhibition of human LOXIMVI cells assessed as cell growth at 10^-5 M incubated for 48 hrs by sulforhodamine B assay relative to control; conditions: read-out: Activity
CCRF-CEM = assay: Growth inhibition of human CCRF-CEM cells assessed as cell growth at 10^-5 M incubated for 48 hrs by sulforhodamine B assay relative to control; conditions: read-out: Activity
K562 = assay: Growth inhibition of human K562 cells assessed as cell growth at 10^-5 M incubated for 48 hrs by sulforhodamine B assay relative to control; conditions: K562, 48 h, read-out: Activity
SK-MEL-28 = assay: Growth inhibition of human SK-MEL-28 cells assessed as cell growth at 10^-5 M incubated for 48 hrs by sulforhodamine B assay relative to control; conditions: SK-MEL-28, 48 h, read-out: Activity
HCT-15 = assay: Growth inhibition of human HCT15 cells assessed as cell growth at 10^-5 M incubated for 48 hrs by sulforhodamine B assay relative to control; conditions: HCT-15, 48 h, read-out: Activity
HCT-116 = assay: Growth inhibition of human HCT116 cells assessed as cell growth at 10^-5 M incubated for 48 hrs by sulforhodamine B assay relative to control; conditions: HCT-116, 48 h, read-out: Activity
MCF7 = assay: Growth inhibition of human MCF7 cells at 10^-5 M incubated for 48 hrs by sulforhodamine B assay relative to control; conditions: MCF7, 48 h, read-out: GI
NCI/ADR-RES = assay: Growth inhibition of human NCI/ADR-RES cells assessed as cell growth at 10^-5 M incubated for 48 hrs by sulforhodamine B assay relative to control; conditions: read-out: Activity
NCI-H23 = assay: Growth inhibition of human NCI-H23 cells assessed as cell growth at 10^-5 M incubated for 48 hrs by sulforhodamine B assay relative to control; conditions: NCI-H23, 48 h, read-out: Activity
NCI-H322M = assay: Growth inhibition of human NCI-H322M cells assessed as cell growth at 10^-5 M incubated for 48 hrs by sulforhodamine B assay relative to control; conditions: read-out: Activity
MDA-MB-468 = assay: Growth inhibition of human MDA-MB-468 cells at 10^-5 M incubated for 48 hrs by sulforhodamine B assay relative to control; conditions: MDA-MB-468, 48 h, read-out: GI
HCC 2998 = assay: Growth inhibition of human HCC2998 cells assessed as cell growth at 10^-5 M incubated for 48 hrs by sulforhodamine B assay relative to control; conditions: HCC 2998, 48 h, read-out: Activity
PC-3 = assay: Growth inhibition of human PC3 cells assessed as cell growth at 10^-5 M incubated for 48 hrs by sulforhodamine B assay relative to control; conditions: PC-3, 48 h, read-out: Activity
MDA-MB-435 = assay: Growth inhibition of human MDA-MB-435 cells assessed as cell growth at 10^-5 M incubated for 48 hrs by sulforhodamine B assay relative to control; conditions: MDA-MB-435, 48 h, read-out: Activity
786-0 = assay: Growth inhibition of human 786-0 cells assessed as cell growth at 10^-5 M incubated for 48 hrs by sulforhodamine B assay relative to control; conditions: 786-0, 48 h, read-out: Activity
SF-268 = assay: Growth inhibition of human SF268 cells assessed as cell growth at 10^-5 M incubated for 48 hrs by sulforhodamine B assay relative to control; conditions: SF-268, 48 h, read-out: Activity
DU-145 = assay: Growth inhibition of human DU145 cells assessed as cell growth at 10^-5 M incubated for 48 hrs by sulforhodamine B assay relative to control; conditions: DU-145, 48 h, read-out: Activity
OVCAR-5 = assay: Growth inhibition of human OVCAR5 cells assessed as cell growth at 10^-5 M incubated for 48 hrs by sulforhodamine B assay relative to control; conditions: OVCAR-5, 48 h, read-out: Activity

SMILES | growth at 10 µM (NCI-H460) [%] | growth at 10 µM (NCI-H226) [%] | growth at 10 µM (SF-295) [%] | growth at 10 µM (OVCAR-3) [%] | growth at 10 µM (NCI-H522) [%] | growth at 10 µM (SK-MEL-2) [%] | growth at 10 µM (A498) [%] | inhibition of growth at 10 µM (T47D) [%] | growth at 10 µM (RPMI-8226) [%] | growth at 10 µM (MDA-MB-231) [%] | growth at 10 µM (OVCAR-4) [%] | growth at 10 µM (Hs-578T) [%] | growth at 10 µM (SW-620) [%] | growth at 10 µM (EKVX) [%] | growth at 10 µM (LOX IMVI) [%] | growth at 10 µM (CCRF-CEM) [%] | growth at 10 µM (K562) [%] | growth at 10 µM (SK-MEL-28) [%] | growth at 10 µM (HCT-15) [%] | growth at 10 µM (HCT-116) [%] | further results
O=C1Nc2ccccc2/C1=C/c1cccn1CCCCCCn1c2ccccc2c(=O)c2ccccc21 | 90.7 | 72.7 | 97.2 | 64.9 | 66 | 86.2 | 103 | 100 | 25.3 | 75.4 | 53.8 | 96.3 | 102 | 65.3 | 91.2 | 49.8 | 66.6 | 111 | 23 | 70.4 | inhibition of growth at 10 µM (MCF7): 99%; growth at 10 µM (NCI/ADR-RES): 71.8%; growth at 10 µM (NCI-H23): 73.6%; growth at 10 µM (NCI-H322M): 97.9%; inhibition of growth at 10 µM (MDA-MB-468): 92%; growth at 10 µM (HCC 2998): 42.8%; growth at 10 µM (PC-3): 40.1%; growth at 10 µM (MDA-MB-435): 96.7%; growth at 10 µM (786-0): 103%; growth at 10 µM (SF-268): 87%; growth at 10 µM (DU-145): 94%; growth at 10 µM (OVCAR-5): 82.2%
O=C1/C(=C\c2cccn2CCCCCCn2c3ccccc3c(=O)c3ccccc32)c2ccccc2N1c1c(Cl)cccc1Cl | 109 | 81.9 | 99.2 | 102 | 91 | 98.8 | 110 | 57 | 93.4 | 101 | 58.3 | 103 | 108 | 89.5 | 98.5 | 108 | 97.9 | 108 | 67.1 | 103 | inhibition of growth at 10 µM (MCF7): 85%; growth at 10 µM (NCI/ADR-RES): 104%; growth at 10 µM (NCI-H23): 101%; growth at 10 µM (NCI-H322M): 98.6%; inhibition of growth at 10 µM (MDA-MB-468): 56%; growth at 10 µM (HCC 2998): 78.8%; growth at 10 µM (PC-3): 73.9%; growth at 10 µM (MDA-MB-435): 105%; growth at 10 µM (786-0): 103%; growth at 10 µM (SF-268): 94.7%; growth at 10 µM (DU-145): 113%; growth at 10 µM (OVCAR-5): 93.5%
O=C1NC(=O)C(=Cc2cccn2CCCCCn2c3ccccc3c(=O)c3ccccc32)C(=O)N1 | 108 | 99.2 | 99.4 | 105 | 90.5 | 107 | 104 | 13 | 92 | 116 | 99.8 | 106 | 105 | 105 | 95.3 | 100 | 89.1 | 111 | 92.8 | 82.2 | inhibition of growth at 10 µM (MCF7): 15%; growth at 10 µM (NCI/ADR-RES): 99.5%; growth at 10 µM (NCI-H23): 96.3%; growth at 10 µM (NCI-H322M): 98.3%; inhibition of growth at 10 µM (MDA-MB-468): 0%; growth at 10 µM (HCC 2998): 105%; growth at 10 µM (PC-3): 91%; growth at 10 µM (MDA-MB-435): 97.7%; growth at 10 µM (786-0): 99%; growth at 10 µM (SF-268): 102%; growth at 10 µM (DU-145): 113%; growth at 10 µM (OVCAR-5): 101%
O=C1NC(=O)C(=Cc2cccn2CCCn2c3ccccc3c(=O)c3ccccc32)C(=O)N1 | 105 | 96.3 | 98.7 | 112 | 88.6 | 109 | 98.5 | 15 | 88 | 99.4 | 104 | 115 | 107 | 98 | 96.9 | 92.7 | 88.4 | 110 | 96.5 | 86 | inhibition of growth at 10 µM (MCF7): 12%; growth at 10 µM (NCI/ADR-RES): 101%; growth at 10 µM (NCI-H23): 104%; growth at 10 µM (NCI-H322M): 98.5%; inhibition of growth at 10 µM (MDA-MB-468): 7%; growth at 10 µM (HCC 2998): 104%; growth at 10 µM (PC-3): 98.9%; growth at 10 µM (MDA-MB-435): 104%; growth at 10 µM (786-0): 96.3%; growth at 10 µM (SF-268): 99.7%; growth at 10 µM (DU-145): 108%; growth at 10 µM (OVCAR-5): 99.9%
